Patent US12077503B2, “Substituted cyclic amides and their use as herbicides” (FMC CORPORATION, priority 2015, dated 2024)
Like-named read-outs stand apart in the source and are kept apart here.

Assays:
Experiment in all cases: Test A preemergence
Assay type in all cases: in vivo
Kochia (Kochia scoparia) = conditions: Bassia scoparia, pre-emergence, 240 h; for pest or weed control at 500 g/ha: 500 g ai/ha; for pest or weed control at 125 g/ha: 125 g ai/ha; for pest or weed control at 31 g/ha: 31 g ai/ha
Outline: (§1)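 Treatment is preemergence as a directed soil spray after planting, or postemergence at the one- to two-leaf stage, with test chemical in a non-phytotoxic solvent mixture plus surfactant. Plants stay in the greenhouse about 10 d before visual injury scoring on a 0 to 100 scale versus untreated controls.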

[1] = system: barnyardgrass (Echinochloa crus-galli); conditions: Echinochloa crus-galli, pre-emergence, 240 h; for pest or weed control at 500 g/ha: 500 g ai/ha; for pest or weed control at 125 g/ha: 125 g ai/ha; for pest or weed control at 31 g/ha: 31 g ai/ha
Outline: as §1

[2] = system: giant foxtail (Setaria faberii); conditions: Setaria faberi, pre-emergence, 240 h; for pest or weed control at 500 g/ha: 500 g ai/ha; for pest or weed control at 125 g/ha: 125 g ai/ha; for pest or weed control at 31 g/ha: 31 g ai/ha
Outline: as §1

[3] = system: pigweed (Amaranthus retroflexus); conditions: Amaranthus retroflexus, pre-emergence, 240 h; for pest or weed control at 500 g/ha: 500 g ai/ha; for pest or weed control at 125 g/ha: 125 g ai/ha; for pest or weed control at 31 g/ha: 31 g ai/ha
[4] = system: ragweed (common ragweed, Ambrosia elatior); conditions: Ambrosia artemisiifolia, pre-emergence, 240 h; for pest or weed control at 500 g/ha: 500 g ai/ha; for pest or weed control at 125 g/ha: 125 g ai/ha; for pest or weed control at 31 g/ha: 31 g ai/ha
Outline: as §1

[5] = system: ryegrass, Italian (Italian ryegrass, Lolium multiflorum); conditions: Lolium multiflorum, pre-emergence, 240 h; for pest or weed control at 125 g/ha: 125 g ai/ha; for pest or weed control at 500 g/ha: 500 g ai/ha; for pest or weed control at 31 g/ha: 31 g ai/ha
Outline: as §1

[6] = preemergence, 0 to 100 scale where 0 is no effect and 100 is complete control, read-out: Kochia plant response rating
[7] = Preemergence, 0 to 100 scale (0 no effect, 100 complete control), read-out: Plant response rating, Kochia
[8] = preemergence, 0 to 100 scale where 0 is no effect and 100 is complete control, read-out: Barnyardgrass plant response rating
[9] = Preemergence, 0 to 100 scale (0 no effect, 100 complete control), read-out: Plant response rating, Barnyardgrass
[10] = preemergence, 0 to 100 scale where 0 is no effect and 100 is complete control, read-out: Foxtail, Giant plant response rating
[11] = Preemergence, 0 to 100 scale (0 no effect, 100 complete control), read-out: Plant response rating, Foxtail, Giant
[12] = preemergence, 0 to 100 scale where 0 is no effect and 100 is complete control, read-out: Pigweed plant response rating
[13] = Preemergence, 0 to 100 scale (0 no effect, 100 complete control), read-out: Plant response rating, Pigweed
[14] = preemergence, 0 to 100 scale where 0 is no effect and 100 is complete control, read-out: Ragweed plant response rating
[15] = Preemergence, 0 to 100 scale (0 no effect, 100 complete control), read-out: Plant response rating, Ragweed
[16] = Preemergence, 0 to 100 scale (0 no effect, 100 complete control), read-out: Plant response rating, Ryegrass, Italian
[17] = preemergence, visual rating after approx. 10 d, 0 to 100 scale where 0 is no effect and 100 is complete control, read-out: Plant response rating, Kochia
[18] = preemergence, visual rating after approx. 10 d, 0 to 100 scale where 0 is no effect and 100 is complete control, read-out: Plant response rating, Barnyardgrass
[19] = preemergence, visual rating after approx. 10 d, 0 to 100 scale where 0 is no effect and 100 is complete control, read-out: Plant response rating, Foxtail, Giant
[20] = preemergence, visual rating after approx. 10 d, 0 to 100 scale where 0 is no effect and 100 is complete control, read-out: Plant response rating, Pigweed
[21] = preemergence, visual rating after approx. 10 d, 0 to 100 scale where 0 is no effect and 100 is complete control, read-out: Plant response rating, Ragweed
[22] = preemergence, visual rating after approx. 10 d, 0 to 100 scale where 0 is no effect and 100 is complete control, read-out: Plant response rating, Ryegrass, Italian

Structure (SMILES) | pest or weed control at 500 g/ha (Kochia (Kochia scoparia); [6]) [%] | pest or weed control at 125 g/ha (Kochia (Kochia scoparia); [7]) [%] | pest or weed control at 500 g/ha [1, 8] [%] | pest or weed control at 125 g/ha [1, 9] [%] | pest or weed control at 500 g/ha [2, 10] [%] | pest or weed control at 125 g/ha [2, 11] [%] | pest or weed control at 500 g/ha [3, 12] [%] | pest or weed control at 125 g/ha [3, 13] [%] | pest or weed control at 500 g/ha [4, 14] [%] | pest or weed control at 125 g/ha [4, 15] [%] | pest or weed control at 125 g/ha [5, 16] [%] | pest or weed control at 125 g/ha (Kochia (Kochia scoparia); [17]) [%] | pest or weed control at 125 g/ha [1, 18] [%] | pest or weed control at 125 g/ha [2, 19] [%] | pest or weed control at 125 g/ha [3, 20] [%] | pest or weed control at 125 g/ha [4, 21] [%] | pest or weed control at 125 g/ha [5, 22] [%] | pest or weed control at 31 g/ha (Kochia (Kochia scoparia); [7]) [%] | pest or weed control at 31 g/ha [1, 9] [%] | pest or weed control at 31 g/ha [2, 11] [%] | further results
O=C1NC[C@H](c2ccc(OC(F)F)cc2)[C@H]1C(=O)Nc1ccc(F)cc1F [Compound 1325] | 90 | 80 | 90 | 90 | 90 | 90 | 90 | 60 | 70 | 10 | 0 |  |  |  |  |  |  |  |  |  | 
O=C1NC[C@H](c2ccc3c(c2)CCO3)[C@H]1C(=O)Nc1ccccc1F [Compound 786] |  |  |  |  |  |  |  |  |  |  |  | 0 | 80 | 90 | 0 | 0 | 0 |  |  |  | pest or weed control at 500 g/ha (Kochia (Kochia scoparia); Preemergence, visual injury vs untreated controls after approximately 10 d, read-out: Kochia plant response rating (0 to 100 scale where 0 is no effect and 100 is complete control)): 0%; pest or weed control at 500 g/ha ([1]; Preemergence, visual injury vs untreated controls after approximately 10 d, read-out: Barnyardgrass plant response rating (0 to 100 scale where 0 is no effect and 100 is complete control)): 90%; pest or weed control at 500 g/ha ([2]; Preemergence, visual injury vs untreated controls after approximately 10 d, read-out: Foxtail, Giant plant response rating (0 to 100 scale where 0 is no effect and 100 is complete control)): 90%; pest or weed control at 500 g/ha ([3]; Preemergence, visual injury vs untreated controls after approximately 10 d, read-out: Pigweed plant response rating (0 to 100 scale where 0 is no effect and 100 is complete control)): 0%; pest or weed control at 500 g/ha ([4]; Preemergence, visual injury vs untreated controls after approximately 10 d, read-out: Ragweed plant response rating (0 to 100 scale where 0 is no effect and 100 is complete control)): 0%; pest or weed control at 500 g/ha ([5]; Preemergence, visual injury vs untreated controls after approximately 10 d, read-out: Ryegrass, Italian plant response rating (0 to 100 scale where 0 is no effect and 100 is complete control)): 0%
CSc1ccccc1NC(=O)[C@H]1C(=O)N(C)CC[C@@H]1c1ccc(C(F)(F)F)cc1 [Compound 1227] | 0 |  | 40 |  | 90 |  | 60 |  | 0 |  |  |  |  |  |  |  |  |  |  |  | pest or weed control at 125 g/ha (Kochia (Kochia scoparia); preemergence, visual injury rating, 0 to 100 scale where 0 is no effect and 100 is complete control, approximately 10 d, read-out: Kochia plant response rating): 0%; pest or weed control at 125 g/ha ([1]; preemergence, visual injury rating, 0 to 100 scale where 0 is no effect and 100 is complete control, approximately 10 d, read-out: Barnyardgrass plant response rating): 0%; pest or weed control at 125 g/ha ([2]; preemergence, visual injury rating, 0 to 100 scale where 0 is no effect and 100 is complete control, approximately 10 d, read-out: Foxtail, Giant plant response rating): 50%; pest or weed control at 125 g/ha ([3]; preemergence, visual injury rating, 0 to 100 scale where 0 is no effect and 100 is complete control, approximately 10 d, read-out: Pigweed plant response rating): 30%; pest or weed control at 125 g/ha ([4]; preemergence, visual injury rating, 0 to 100 scale where 0 is no effect and 100 is complete control, approximately 10 d, read-out: Ragweed plant response rating): 0%; pest or weed control at 125 g/ha ([5]; preemergence, visual injury rating, 0 to 100 scale where 0 is no effect and 100 is complete control, approximately 10 d, read-out: Ryegrass, Italian plant response rating): 20%; pest or weed control at 500 g/ha ([5]; preemergence, 0 to 100 scale where 0 is no effect and 100 is complete control, read-out: Ryegrass, Italian plant response rating): 70%
Cc1cc([C@H]2CN(C)C(=O)[C@@H]2C(=O)Nc2cccc(F)c2F)cc(C)c1C [Compound 796] |  |  |  |  |  |  |  |  |  |  |  | 20 | 90 | 90 | 40 | 0 | 20 | 0 | 70 | 90 | pest or weed control at 31 g/ha [3, 13]: 20%; pest or weed control at 31 g/ha [4, 15]: 0%; pest or weed control at 31 g/ha [5, 16]: 0%
CN1C[C@H](c2ccc(C(F)F)cc2)[C@@H](C(=O)Nc2cccc(F)c2F)C1=O [Compound 1383] |  | 90 |  | 100 |  | 100 |  | 80 |  | 80 | 70 |  |  |  |  |  |  |  |  |  | pest or weed control at 500 g/ha (Kochia (Kochia scoparia); preemergence, 0 to 100 scale (0 no effect, 100 complete control), read-out: Plant response rating, Kochia): 90%; pest or weed control at 500 g/ha ([1]; preemergence, 0 to 100 scale (0 no effect, 100 complete control), read-out: Plant response rating, Barnyardgrass): 100%; pest or weed control at 500 g/ha ([2]; preemergence, 0 to 100 scale (0 no effect, 100 complete control), read-out: Plant response rating, Foxtail, Giant): 100%; pest or weed control at 500 g/ha ([3]; preemergence, 0 to 100 scale (0 no effect, 100 complete control), read-out: Plant response rating, Pigweed): 80%; pest or weed control at 500 g/ha ([4]; preemergence, 0 to 100 scale (0 no effect, 100 complete control), read-out: Plant response rating, Ragweed): 80%; pest or weed control at 500 g/ha ([5]; preemergence, 0 to 100 scale (0 no effect, 100 complete control), read-out: Plant response rating, Ryegrass, Italian): 70%
Cc1cc(F)cc([C@H]2CN(C)C(=O)[C@@H]2C(=O)Nc2cccc(F)c2C)c1 [Compound 802] |  |  |  |  |  |  |  |  |  |  |  | 50 | 90 | 90 | 50 | 60 | 40 | 0 | 80 | 90 | pest or weed control at 31 g/ha [3, 13]: 40%; pest or weed control at 31 g/ha [4, 15]: 0%; pest or weed control at 31 g/ha [5, 16]: 0%
